Assay results as given in paper PMC3279408, “A Non-Mammalian Type Opsin 5 Functions Dually in the Photoreceptive and Non-Photoreceptive Organs of Birds” (PLoS ONE, 2012).

Target: T1, cOpn5L2 (Gallus gallus, UniProt B3XZF6)
T1 construct: N-terminal peptide MEEQYISKLHPVVDY, C-terminal peptide IRLSPTAKVESQGAARH (antigens)
T1 sequence (B3XZF6 1-348): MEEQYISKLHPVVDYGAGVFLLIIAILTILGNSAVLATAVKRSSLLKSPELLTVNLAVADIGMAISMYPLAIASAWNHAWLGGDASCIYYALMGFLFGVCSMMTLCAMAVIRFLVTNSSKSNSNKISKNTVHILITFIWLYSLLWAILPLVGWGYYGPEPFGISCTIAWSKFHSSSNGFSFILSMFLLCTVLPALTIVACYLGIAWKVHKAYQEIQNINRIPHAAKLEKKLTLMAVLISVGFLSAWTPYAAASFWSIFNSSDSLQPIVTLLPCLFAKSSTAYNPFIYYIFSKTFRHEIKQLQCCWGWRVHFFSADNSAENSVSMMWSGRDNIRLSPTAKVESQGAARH
Test: absorption spectra of purified pigment, HPLC of retinal oximes, GTPgammaS binding Gi activation assay
Settings: 5 uM retinal added to cell medium, pH 6.5, spectra at 0 C

For `CC1=C(/C=C/C(C)=C/C=C\C(C)=C\C=O)C(C)(C)CCC1` [11-cis-retinal], the “absorption spectra of purified pigment, HPLC of retinal oximes, GTPgammaS bindin” value (chromophore of UV-absorbing form, UV light converts it to the active all-trans form) was “absorption spectrum and the light-dependent changes of cOpn5L2 reconstituted with 11-cis-retinal”.
In the case of `CC1=C(/C=C/C(C)=C/C=C/C(C)=C/C=O)C(C)(C)CCC1` [all-trans-retinal], the “absorption spectra of purified pigment, HPLC of retinal oximes, GTPgammaS bindin” value (agonist, Gi assay in dark at pH 7.0, 0 C, retinylidene chromophore) is reported as “all-trans-retinal most likely incorporates directly into cOpn5L2, which results in induction of basal constitutive activity”.
